Assay results taken from US20260022142A1, “MACROCYCLIC IMMUNOMODULATORS” (Bristol-Myers Squibb Company, priority 2022, published 2026).
Numbered stars: 1 amine (or outer) side, 2 acyl side, 3 side chain; on linkers, the order of the positions; unused ones are H or OH. Bridge positions count the residues as written; N and C are the ends. Square brackets hold non-standard residues; d marks the D form. Peptide text beside a SMILES is read from it. * marks the point of attachment. ξ: configuration not given here. Phe(4-COOH) = N[C@@H](Cc1ccc(C(=O)O)cc1)C(=O)O; Bip = N[C@@H](Cc1ccc(-c2ccccc2)cc1)C(=O)O; NH(CH2)14COOH = O=C(O)CCCCCCCCCCCCCCN*; Phe(3-Me) = Cc1cccc(C[C@H](N)C(=O)O)c1; γGlu = O=C(O)[C@H](CCC(=O)[*:2])N[*:1]; NH(CH2)12COOH = O=C(O)CCCCCCCCCCCCN*; Val(3-OH) = CC(C)(O)[C@H](N)C(=O)O; Aha = [N-]=[N+]=NCC[C@H](N)C(=O)O; 4Pal = N[C@@H](Cc1ccncc1)C(=O)O; Cha = N[C@@H](CC1CCCCC1)C(=O)O; Cit = NC(=O)NCCC[C@H](N)C(=O)O; Thr(3ξ) = CC(O)[C@H](N)C(=O)O; 4Abz = Nc1ccc(C(=O)O)cc1; Carboxymethyl = O=C(O)C*; Orn = NCCC[C@H](N)C(=O)O; Aun = NCCCCCCCCCCC(=O)O; Dab = NCC[C@H](N)C(=O)O; Dap = NC[C@H](N)C(=O)O; AEEA = NCCOCCOCC(=O)O; ξC = NC(CS)C(=O)O

Target: T1, PD-1/PD-L1 interaction (PE-labeled human PD-L1-Ig binding to Jurkat cell line over-expressing human PD-1) (Homo sapiens, UniProt Q15116)
T1 construct: expressed in transfected cells; host or cells: Jurkat
T1 sequence (Q15116 25-288): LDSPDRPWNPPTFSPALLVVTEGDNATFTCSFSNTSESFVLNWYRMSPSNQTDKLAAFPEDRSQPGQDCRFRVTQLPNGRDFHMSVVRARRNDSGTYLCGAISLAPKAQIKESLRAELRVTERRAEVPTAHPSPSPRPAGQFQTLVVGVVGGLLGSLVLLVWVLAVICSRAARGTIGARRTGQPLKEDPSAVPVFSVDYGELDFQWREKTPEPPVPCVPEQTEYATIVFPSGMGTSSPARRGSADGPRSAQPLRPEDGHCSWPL
Experiment: Jurkat-PD-1 Cell Binding High-Content Screening Assay (CBA)
Type: cell-based
Details: Jurkat cell line over-expressing human PD-1; PE-labeled PD-L1-Ig 20 nM final; read-out: Jurkat hPD1-PDL1 IC50
Outline: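 Human PD-L1-Ig carrying a covalent PE label on its Ig tag serves as the probe, applied at 20 nM final to compound-treated (2 h, 37° C) Jurkat-hPD-1 cells in medium with 10% fetal calf serum. After one hour, fixation and nuclear staining precede high-content image analysis.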

Row | IC50 [nM] | Structure (SMILES)
1 | 24.7 | CC(C)C[C@H]1NC(=O)[C@H](CCCN)NC(=O)[C@H](C(C)C)NC(=O)[C@H](Cc2ccc(-c3ccccc3)cc2)NC(=O)[C@H](C(C)C)NC(=O)[C@H](Cc2c[nH]c3ccccc23)NC(=O)[C@H](CC(=O)O)NC(=O)[C@H](Cc2ccc(OCC(=O)O)cc2)NC(=O)[C@H](CN)NC(=O)CSC[C@@H](C(=O)N[C@@H](C)C(=O)N[C@@H](CCN)C(=O)NCCCCCCCCCCC(=O)O)NC(=O)[C@H]([C@@H](C)O)NC(=O)[C@H](C(C)C)NC(=O)[C@H](CC2CCCCC2)NC(=O)[C@H](Cc2cnc[nH]2)NC1=O [Compound 1082] ({CH2CO}-[Dap]Y(Carboxymethyl)DWV[Bip]V[Orn][dL]H[Cha]VTCA[Dab][Aun]-OH; thioether N-14)
2 | 18.3 | Cc1cccc(C[C@@H]2NC(=O)[C@H](CC(=O)O)NC(=O)[C@H](Cc3ccc(OCC(=O)O)cc3)NC(=O)[C@H](CN)NC(=O)CSC[C@@H](C(=O)N[C@@H](CC(=O)O)C(=O)NCCCCCCCCCCC(=O)O)NC(=O)[C@H]([C@@H](C)O)NC(=O)[C@H](C(C)C)NC(=O)[C@H](CC3CCCCC3)NC(=O)[C@H](CCN)NC(=O)[C@@H](CC(C)C)NC(=O)[C@H](CCCN)NC(=O)[C@H](CCC(=O)O)NC(=O)[C@H](Cc3ccc(-c4ccccc4)cc3)NC(=O)[C@H](C(C)C)NC2=O)c1 [Compound 1048] ({CH2CO}-[Dap]Y(Carboxymethyl)D[Phe(3-Me)]V[Bip]E[Orn][dL][Dab][Cha]VTCD[Aun]-OH; thioether N-14)
3 | 31.3 | Cc1cccc(C[C@@H]2NC(=O)[C@H](CC(=O)O)NC(=O)[C@H](Cc3ccc(C(=O)O)cc3)NC(=O)[C@H](Cc3ccc(OCC(=O)O)cc3)NC(=O)CSC[C@@H](C(=O)N[C@@H](CCN)C(=O)NCCCCCCCCCCC(=O)O)NC(=O)[C@H](C(C)O)NC(=O)[C@H](C(C)C)NC(=O)[C@H](CC3CCCCC3)NC(=O)[C@H](CCN)NC(=O)[C@@H](CC(C)C)NC(=O)[C@H](CCCN)NC(=O)[C@H](CCCNC(N)=O)NC(=O)[C@H](Cc3ccc(-c4ccccc4)cc3)NC(=O)[C@H](CC(C)C)NC2=O)c1 (stereo partly drawn) [Compound 3463] ({CH2CO}-Y(Carboxymethyl)[Phe(4-COOH)]D[Phe(3-Me)]L[Bip][Cit][Orn][dL][Dab][Cha]V[Thr(3ξ)]C[Dab][Aun]-OH; thioether N-14)
4 | 12.8 | Cc1cccc(C[C@@H]2NC(=O)[C@H](CC(=O)O)NC(=O)[C@H](Cc3ccc(OCC(=O)O)cc3)NC(=O)[C@H](CN)NC(=O)CSC[C@@H](C(=O)N[C@@H](CCN)C(=O)NCCCCCCCCCCC(=O)O)NC(=O)[C@H](CCCN)NC(=O)[C@H](C(C)C)NC(=O)[C@H](CC3CCCCC3)NC(=O)[C@H](CCN)NC(=O)[C@@H](CC(C)C)NC(=O)[C@H](CCCN)NC(=O)[C@H](CCCNC(N)=O)NC(=O)[C@H](Cc3ccc(-c4ccccc4)cc3)NC(=O)[C@H](Cc3ccc(O)cc3)NC2=O)c1 [Compound 2846] ({CH2CO}-[Dap]Y(Carboxymethyl)D[Phe(3-Me)]Y[Bip][Cit][Orn][dL][Dab][Cha]V[Orn]C[Dab][Aun]-OH; thioether N-14)
5 | 5.5 | Cc1cccc(C[C@@H]2NC(=O)[C@H](CC(=O)O)NC(=O)[C@H](Cc3ccc(OCC(=O)O)cc3)NC(=O)[C@H](CN)NC(=O)CSC[C@@H](C(=O)N[C@@H](C)C(=O)N[C@@H](CC(=O)O)C(=O)NCCOCCOCC(=O)N[C@@H](CCC(=O)NCCOCCOCC(=O)NCCCCCCCCCCC(=O)O)C(=O)O)NC(=O)[C@H]([C@@H](C)O)NC(=O)[C@H](C(C)C)NC(=O)[C@H](CC3CCCCC3)NC(=O)[C@H](CCN)NC(=O)[C@@H](CC(C)C)NC(=O)[C@H](CCCN)NC(=O)[C@H](CCCNC(N)=O)NC(=O)[C@H](Cc3ccc(-c4ccccc4)cc3)NC(=O)[C@H](C(C)C)NC2=O)c1 [Compound 1014] ({CH2CO}-[Dap]Y(Carboxymethyl)D[Phe(3-Me)]V[Bip][Cit][Orn][dL][Dab][Cha]VTCAD[AEEA][γGlu][AEEA][Aun]-OH; thioether N-14)
6 | 31.1 | Cc1cccc(C[C@@H]2NC(=O)[C@H](CC(=O)O)NC(=O)[C@H](Cc3ccc(OCC(=O)O)cc3)NC(=O)[C@H](CCN)NC(=O)CSC[C@@H](C(=O)N[C@@H](CCN)C(=O)NCCOCCOCC(=O)NCCOCCOCC(=O)N[C@@H](CCC(=O)NCCCCCCCCCCCCCCC(=O)O)C(=O)O)NC(=O)[C@H](Cc3cnc[nH]3)NC(=O)[C@H](C(C)(C)O)NC(=O)[C@H](CC3CCCCC3)NC(=O)[C@H](CCN)NC(=O)[C@@H](CC(C)C)NC(=O)[C@H](CCCN)NC(=O)[C@H](Cc3ccc(C(=O)O)cc3)NC(=O)[C@H](Cc3ccc(-c4ccccc4)cc3)NC(=O)[C@H](Cc3ccc(C(=O)O)cc3)NC2=O)c1 [Compound 1253] ({CH2CO}-[Dab]Y(Carboxymethyl)D[Phe(3-Me)][Phe(4-COOH)][Bip][Phe(4-COOH)][Orn][dL][Dab][Cha][Val(3-OH)]HC[Dab][AEEA][AEEA]E(NH(CH2)14COOH)-OH; thioether N-14)
7 | 16.6 | Cc1cccc(C[C@@H]2NC(=O)[C@H](CC(=O)O)NC(=O)[C@H](Cc3ccc(OCC(=O)O)cc3)NC(=O)[C@H](C(C)O)NC(=O)CSC[C@@H](C(=O)N[C@@H](CCN)C(=O)NCCOCCOCC(=O)N[C@@H](CCC(=O)NCCOCCOCC(=O)NCCCCCCCCCCCCC(=O)O)C(=O)O)NC(=O)[C@H](CO)NC(=O)[C@H](C(C)(C)O)NC(=O)[C@H](CC3CCCCC3)NC(=O)[C@H](CCN)NC(=O)[C@@H](CC(C)C)NC(=O)[C@H](CCCN)NC(=O)[C@H](Cc3ccc(C(=O)O)cc3)NC(=O)[C@H](Cc3ccc(-c4ccccc4)cc3)NC(=O)[C@H](Cc3ccc(C(=O)O)cc3)NC2=O)c1 (stereo partly drawn) [Compound 3907] ({CH2CO}-[Thr(3ξ)]Y(Carboxymethyl)D[Phe(3-Me)][Phe(4-COOH)][Bip][Phe(4-COOH)][Orn][dL][Dab][Cha][Val(3-OH)]SC[Dab][AEEA][γGlu][AEEA]-{NH(CH2)12COOH}; thioether N-14)
8 | 277 | CC(C)C[C@@H]1NC(=O)[C@H](Cc2c[nH]c3ccccc23)NC(=O)[C@H](CC(=O)O)NC(=O)[C@H](Cc2ccncc2)NC(=O)[C@H](Cc2ccc(OCC(=O)O)cc2)NC(=O)CSC[C@@H](C(=O)Nc2ccc(C(=O)NCCCCCCCCCCC(=O)O)cc2)NC(=O)[C@H](CCCN)NC(=O)[C@H](C(C)C)NC(=O)[C@H](CC2CCCCC2)NC(=O)[C@H](CCN)NC(=O)[C@@H](CC(C)C)NC(=O)[C@H](CCCN)NC(=O)[C@H](C(C)C)NC(=O)[C@H](Cc2ccc(-c3ccccc3)cc2)NC1=O [Compound 1226] ({CH2CO}-Y(Carboxymethyl)[4Pal]DWL[Bip]V[Orn][dL][Dab][Cha]V[Orn]C[4Abz][Aun]-OH; thioether N-14)
9 | 18.2 | Cc1cccc(C[C@@H]2NC(=O)[C@H](CC(=O)O)NC(=O)[C@H](Cc3ccc(OCC(=O)O)cc3)NC(=O)[C@H](CCCNC(=N)N)NC(=O)CSC[C@@H](C(=O)N[C@@H](CCN)C(=O)NCCCCCCCCCCC(=O)O)NC(=O)[C@H](C(C)O)NC(=O)[C@H](C(C)(C)O)NC(=O)[C@H](CC3CCCCC3)NC(=O)[C@H](CCN)NC(=O)[C@@H](CC(C)C)NC(=O)[C@H](CCCN)NC(=O)[C@H](CCCNC(N)=O)NC(=O)[C@H](Cc3ccc(-c4ccccc4)cc3)NC(=O)[C@H](C(C)C)NC2=O)c1 (stereo partly drawn) [Compound 3512] ({CH2CO}-RY(Carboxymethyl)D[Phe(3-Me)]V[Bip][Cit][Orn][dL][Dab][Cha][Val(3-OH)][Thr(3ξ)]C[Dab][Aun]-OH; thioether N-14)
10 | 21 | Cc1cccc(C[C@@H]2NC(=O)[C@H](CC(=O)O)NC(=O)[C@H](Cc3ccc(OCC(=O)O)cc3)NC(=O)[C@H](CCCNC(=N)N)NC(=O)CSC[C@@H](C(=O)N[C@@H](CCCN)C(=O)NCCCCCCCCCCC(=O)O)NC(=O)[C@H](CCC(=O)O)NC(=O)[C@H](C(C)C)NC(=O)[C@H](CC3CCCCC3)NC(=O)[C@H](CCN)NC(=O)[C@@H](CC(C)C)NC(=O)[C@H](CCN)NC(=O)[C@H](Cc3ccc(O)cc3)NC(=O)[C@H](Cc3ccc(-c4ccccc4)cc3)NC(=O)[C@H](C(C)C)NC2=O)c1 [Compound 2819] ({CH2CO}-RY(Carboxymethyl)D[Phe(3-Me)]V[Bip]Y[Dab][dL][Dab][Cha]VEC[Orn][Aun]-OH; thioether N-14)
11 | 243 | COc1ccc(C[C@@H]2NC(=O)[C@H](Cc3cccc(C)c3)NC(=O)[C@H](CC(=O)O)NC(=O)[C@H](Cc3ccc(OCC(=O)O)cc3)NC(=O)[C@H](Cc3ccncc3)NC(=O)CSC[C@@H](C(=O)N[C@@H](CCN)C(=O)N[C@@H](CCN=[N+]=[N-])C(=O)NCCCCCCCCCCC(=O)O)NC(=O)[C@H](CO)NC(=O)[C@H](C(C)(C)O)NC(=O)[C@H](CC3CCCCC3)NC(=O)[C@H](CCN)NC(=O)[C@@H](CC(C)C)NC(=O)[C@H](CCCN)NC(=O)[C@H](Cc3ccc(OCC(=O)O)cc3)NC(=O)[C@H](Cc3ccc(-c4ccccc4)cc3)NC2=O)cc1 [Compound 1280] ({CH2CO}-[4Pal]Y(Carboxymethyl)D[Phe(3-Me)]Y(Me)[Bip]Y(Carboxymethyl)[Orn][dL][Dab][Cha][Val(3-OH)]SC[Dab][Aha][Aun]-OH; thioether N-14)
12 | 9.4 | CC[C@H](C)[C@@H]1NC(=O)[C@H](Cc2ccc(-c3ccccc3)cc2)NC(=O)[C@H](C(C)C)NC(=O)[C@H](Cc2c[nH]c3ccccc23)NC(=O)[C@H](CC(=O)O)NC(=O)[C@H](Cc2ccc(OCC(=O)O)cc2)NC(=O)[C@H](CN)NC(=O)CSCC(C(=O)NCCOCCOCC(=O)NCCCCCCCCCCC(=O)O)NC(=O)[C@H](CCCCN)NC(=O)[C@H](C(C)C)NC(=O)[C@H](CC2CCCCC2)NC(=O)[C@H](CCN)NC(=O)[C@@H](CC(C)C)NC(=O)[C@H](CCCN)NC1=O (stereo partly drawn) [Compound 2644] ({CH2CO}-[Dap]Y(Carboxymethyl)DWV[Bip]I[Orn][dL][Dab][Cha]VK[ξC][AEEA][Aun]-OH; thioether N-14)
